Results from patent US11752139B2, “Therapeutic combinations of orally administered irinotecan and a p-gp inhibitor for the treatment of cancer” (priority 2018, dated 2023).
Several values for one entry are separate records, joined by “and”; a condition that tells them apart may be missing. Equal entries are not always repeated. Where two headings read alike, the source gives them in different places.

Columns and labels:
[1] = IV dose of 340 mg/m^2; reference line of FIG. 5A; cited from earlier work
[2] = Simple Emax model of exposure (AUCinf, Cmax) versus dose
[3] = Study 2: pharmacokinetics of oral irinotecan and M1, 5-20 mg/m^2 per day for 10 days during a 21 day cycle; details: for AUC24 / Cmax: mean
[4] = Study 1: pharmacokinetics of oral irinotecan and M1, 5-30 mg/m^2 per day for five days during a 21 day cycle; details: for AUC24 / Cmax: mean
[5] = for AUC24 h / Cmax / Tmax: N = 3
Experimental: A phase 1 dose escalation study was performed to determine the MTD and DLT of orally administered irinotecan in combination with 15 mg (on day 1 of a 21-day cycle) of HM30181A. The study was performed on cohorts of 3-6 subjects with advanced malignancies. Subjects had Hb (hemoglobin count) 9 gm/dL, ANC (absolute neutrophil count) 1.5×10^9/L, and platelets 100×10^9/L, as well as adequate hepatic and renal function, and ECOG (Eastern Cooperative Oncology Group Performance Status) 0-1, and were not homozygous for UGT1A1*28.

[6] = Tablet, dose 120 (mg), Mean (CV %), N 3, plasma
[7] = Tablet, dose 160 (mg), Mean (CV %), N 3, plasma
[8] = Tablet, dose 200 (mg), Mean (CV %), N 3, plasma
[9] = Tablet, dose 240 (mg), Mean (CV %), N 3, plasma
[10] = Tablet, dose 280 (mg), Mean (CV %), N 3, plasma
[11] = Tablet, dose 320 (mg), Mean (CV %), N 3, plasma
[12] = single oral dose 240 mg/m^2, individual subjects 1-3, plasma
[13] = single oral dose 280 mg/m^2, individual subjects 4-6, plasma
[14] = single oral dose 320 mg/m^2, individual subjects 7-9, plasma
[15] = dose 240 mg/m^2 oral irinotecan + 15 mg HM30181A
[16] = dose 280 mg/m^2 oral irinotecan + 15 mg HM30181A
[17] = dose 320 mg/m^2 oral irinotecan + 15 mg HM30181A

In the case of CCc1c2c(nc3ccc(OC(=O)N4CCC(N5CCCCC5)CC4)cc13)-c1cc3c(c(=O)n1C2)COC(=O)[C@]3(O)CC [IV dosed irinotecan], the Cmax [1] is given as 3392 ng/mL.
In the case of CCc1c2c(nc3ccc(O)cc13)-c1cc3c(c(=O)n1C2)COC(=O)[C@]3(O)CC [Compound M1], the AUC0-inf (Tablet, dose 120 (mg), Mean (CV %), N 2, plasma) is reported as 274 (18.3) ng*hr/mL, the AUC0-24 [6] is reported as 168 (32.9) ng*hr/mL and the Cmax [6] is reported as 23.1 (58.4) ng/mL. For the same compound, the Tlast [6] was 56.0 h, the “Tmax*” value (Tablet, dose 120 (mg), N 3, plasma) was 3.00 h and the AUC0-24 [7] was 156 (22.6) ng*hr/mL. For the same compound, the AUC0-inf [7] was 235 (13.4) ng*hr/mL, the Cmax [7] was 25.0 (58.1) ng/mL and the Tlast [7] was 48.0 (21.7) hr. The “Tmax*” value (Tablet, dose 160 (mg), N 3, plasma) was 3.00 h, the AUC0-24 [8] was 185 (66.3) ng*hr/mL and the AUC0-inf [8] was 468 (90.0) ng*hr/mL. The Cmax [8] was 23.0 (102) ng/mL, the Tlast [8] was 88.0 (83.3) hr and the “Tmax*” value (Tablet, dose 200 (mg), N 3, plasma) was 3.00 h. For the same compound, the AUC0-24 [9] was 264 (66.4) ng*hr/mL, the Cmax [9] was 28.3 (67.3) ng/mL and the Tlast [9] was 96.0 (66.1) hr. The AUC0-inf (Tablet, dose 240 (mg), N 1, plasma) was 224 ng·h/mL, the “Tmax*” value (Tablet, dose 240 (mg), N 3, plasma) was 3.00 h and the AUC0-24 [10] was 293 (60.0) ng*hr/mL. The AUC0-inf [10] was 468 (67.3) ng*hr/mL, the Cmax [10] was 37.6 (42.4) ng/mL and the Tlast [10] was 72.0 (0) hr. For the same compound, the “Tmax*” value (Tablet, dose 280 (mg), N 3, plasma) was 1.5 h, the AUC0-24 [11] was 300 (42.3) ng*hr/mL and the Cmax [11] was 38.5 (58.7) ng/mL. The Tlast [11] was 72.0 (0) hr, the AUC0-inf (Tablet, dose 320 (mg), N 1, plasma) was 349 ng·h/mL and the “Tmax*” value (Tablet, dose 320 (mg), N 3, plasma) was 2.00 h. For the same compound, the Observed Mean (Cmax) (dose 200 mg/m^2) was 23 ng/mL, the Observed Mean AUCinf (dose 200 mg/m^2) was 468 ng·h/mL and the Observed Mean (Cmax) (dose 240 mg/m^2) was 28.3 ng/mL. The Observed Mean AUCinf (dose 240 mg/m^2) was 224 ng·h/mL, the Observed Mean (Cmax) (dose 280 mg/m^2) was 37.6 ng/mL and the Observed Mean AUCinf (dose 280 mg/m^2) was 468 ng·h/mL. For the same compound, the Observed Mean (Cmax) (dose 320 mg/m^2) was 38.7 ng/mL, the Observed Mean AUCinf (dose 320 mg/m^2) was 349 ng·h/mL and the “subjects with M1 exposures (AUC24) comparable between oral irinotecan and IV irinotecan” value (dose level of 200 mg/m^2 and above) was 4 of 9. The “M1 Cmax compared with IV irinotecan” value (oral solution administration) was “within the range of 125 mg/m^2 dosed IV irinotecan”, the “early enterohepatic recycling (EHR) in plasma concentration profile, time” value (plasma) was 5.5 h and the “possible enterohepatic recycling (EHR) in plasma concentration profile, time” value (plasma) was 50 h. For the same compound, the AUC24 [12] was 133 ng·h/mL and 463 ng·h/mL and 195 ng·h/mL, the AUCinf [12] was 224 ng·h/mL and the AUClast [12] was 185 ng·h/mL and 636 ng·h/mL and 376 ng·h/mL. The Cmax [12] was 17.1 ng/mL and 50.3 ng/mL and 17.5 ng/mL, the Tlast [12] was 48 h and 168 h and 72 h and the Tmax [12] was 3 h. The AUC24 [13] was 497 ng·h/mL and 190 ng·h/mL and 194 ng·h/mL, the AUCinf [13] was 831 ng·h/mL and 273 ng·h/mL and 300 ng·h/mL and the AUClast [13] was 783 ng·h/mL and 256 ng·h/mL and 282 ng·h/mL. The Cmax [13] was 55.4 ng/mL and 33.0 ng/mL and 24.5 ng/mL, the Tlast [13] was 72 h and the Tmax [13] was 1 h and 1.5 h and 3 h. The AUC24 [14] was 212 ng·h/mL and 445 ng·h/mL and 242 ng·h/mL, the AUCinf [14] was 349 ng·h/mL and the AUClast [14] was 322 ng·h/mL and 713 ng·h/mL and 410 ng·h/mL. For the same compound, the Cmax [14] was 28.1 ng/mL and 64.8 ng/mL and 23.2 ng/mL, the Tlast [14] was 72 h and the Tmax [14] was 1.5 h and 2 h and 3 h. The “M1 Cmax compared with IV irinotecan” value (tablet formulation, FIG. 5B) was “in a range of that observed with IV irinotecan dosage of 340 mg/m^2”, the “Predicted AUCinf” value ([2]; dose 200 mg/m^2) was 423 and the “Predicted Cmax” value ([2]; dose 200 mg/m^2) was 29.2. For the same compound, the “Predicted AUCinf” value ([2]; dose 240 mg/m^2) was 464, the “Predicted Cmax” value ([2]; dose 240 mg/m^2) was 31.9 and the “Predicted AUCinf” value ([2]; dose 280 mg/m^2) was 499. The “Predicted Cmax” value ([2]; dose 280 mg/m^2) was 34.1, the “Predicted AUCinf” value ([2]; dose 320 mg/m^2) was 528 and the “Predicted Cmax” value ([2]; dose 320 mg/m^2) was 38.8. The pharmacokinetics versus dose ([3]; 5-20 mg/m^2 per day for 10 days during a 21 day cycle) was “increased proportionally with dose”, the AUC24 ([3]; Day 1, dose group 5 mg/m^2) was 41.40 ng·h/mL and the Cmax ([3]; Day 1, dose group 5 mg/m^2) was 7.08 ng/mL. It also gave an AUC24 ([3]; Day 1, dose group 10 mg/m^2) of 43.34 ng·h/mL, a Cmax ([3]; Day 1, dose group 10 mg/m^2) of 5.04 ng/mL and an AUC24 ([3]; Day 1, dose group 15 mg/m^2) of 85.61 ng·h/mL. For the same compound, the Cmax ([3]; Day 1, dose group 15 mg/m^2) was 10.19 ng/mL, the AUC24 ([3]; Day 1, dose group 20 mg/m^2) was 54.44 ng·h/mL and the Cmax ([3]; Day 1, dose group 20 mg/m^2) was 4.15 ng/mL. The AUC24 ([3]; Day 12, dose group 5 mg/m^2) was 42.53 ng·h/mL, the Cmax ([3]; Day 12, dose group 5 mg/m^2) was 6.10 ng/mL and the AUC24 ([3]; Day 12, dose group 10 mg/m^2) was 38.17 ng·h/mL. The Cmax ([3]; Day 12, dose group 10 mg/m^2) was 4.04 ng/mL, the AUC24 ([3]; Day 12, dose group 15 mg/m^2) was 144.14 ng·h/mL and the Cmax ([3]; Day 12, dose group 15 mg/m^2) was 18.00 ng/mL. For the same compound, the AUC24 ([3]; Day 12, dose group 20 mg/m^2) was 71.97 ng·h/mL, the Cmax ([3]; Day 12, dose group 20 mg/m^2) was 7.63 ng/mL and the pharmacokinetics versus dose ([4]; 5-30 mg/m^2 per day for five days during a 21 day cycle) was “increased proportionally with dose”. For the same compound, the AUC24 ([4]; Day 1, dose group 5 mg/m^2) was 49.83 ng·h/mL, the Cmax ([4]; Day 1, dose group 5 mg/m^2) was 6.07 ng/mL and the AUC24 ([4]; Day 1, dose group 10 mg/m^2) was 46.04 ng·h/mL. The Cmax ([4]; Day 1, dose group 10 mg/m^2) was 7.84 ng/mL, the AUC24 ([4]; Day 1, dose group 15 mg/m^2) was 50.29 ng·h/mL and the Cmax ([4]; Day 1, dose group 15 mg/m^2) was 5.33 ng/mL. The AUC24 ([4]; Day 1, dose group 20 mg/m^2) was 63.56 ng·h/mL, the Cmax ([4]; Day 1, dose group 20 mg/m^2) was 8.92 ng/mL and the AUC24 ([4]; Day 1, dose group 25 mg/m^2) was 143.97 ng·h/mL. The Cmax ([4]; Day 1, dose group 25 mg/m^2) was 17.10 ng/mL, the AUC24 ([4]; Day 1, dose group 30 mg/m^2) was 83.64 ng·h/mL and the Cmax ([4]; Day 1, dose group 30 mg/m^2) was 7.31 ng/mL. For the same compound, the AUC24 ([4]; Day 5, dose group 5 mg/m^2) was 68.61 ng·h/mL, the Cmax ([4]; Day 5, dose group 5 mg/m^2) was 5.84 ng/mL and the AUC24 ([4]; Day 5, dose group 10 mg/m^2) was 51.40 ng·h/mL. For the same compound, the Cmax ([4]; Day 5, dose group 10 mg/m^2) was 6.15 ng/mL, the AUC24 ([4]; Day 5, dose group 15 mg/m^2) was 118.29 ng·h/mL and the Cmax ([4]; Day 5, dose group 15 mg/m^2) was 11.14 ng/mL. It also gave an AUC24 ([4]; Day 5, dose group 20 mg/m^2) of 119.38 ng·h/mL, a Cmax ([4]; Day 5, dose group 20 mg/m^2) of 11.73 ng/mL and an AUC24 ([4]; Day 5, dose group 25 mg/m^2) of 178.58 ng·h/mL. The Cmax ([4]; Day 5, dose group 25 mg/m^2) was 14.93 ng/mL, the AUC24 ([4]; Day 5, dose group 30 mg/m^2) was 308.27 ng·h/mL and the Cmax ([4]; Day 5, dose group 30 mg/m^2) was 13.44 ng/mL. For the same compound, the AUC24 h [5, 15] was 264 ng·h/mL, the Cmax [5, 15] was 28.3 ng/mL and the Tmax [5, 15] was 3.0 h. It also gave an AUC24 h [5, 16] of 293 ng·h/mL, a Cmax [5, 16] of 37.6 ng/mL and an AUC24 h [5, 17] of 300 ng·h/mL. For the same compound, the Cmax [5, 17] was 38.5 ng/mL, the Tmax [5, 17] was 2.0 h and the “concentrations of SN-38 reached” value ([5]; oral administration of HM30181A in combination with irinotecan tablets) was “pharmacologically active concentrations”.
